# “Also recorded” adds a separate entry of the source.
# Columns and labels:
# Type in all cases: cell-based, human
# HOS cells [1] = assay: Conventional 96-well chemosensitivity testing of HOS cells grown under pressure, de-pressurized, trypsinized and reattached 24 h (Alamar blue); settings: tested at atmospheric pressure, p<0.05; for difference in the ED50 between cells grown at atmospheric pressure and those grown under 20 mmHg of pressure: HOS cells grown 72 h at 0 vs 20 mmHg, de-pressurized, difference is small
# Description: HOS cells were pressurized at 0 and 20 mmHg for 72 hours. At the end of this time point the growth membrane was removed and discs were created with a sterile punch. These discs bearing 2000 cells/disc were placed within each of the wells in a Costar 96-well plate (Bio-Rad, Hercules, Calif.). Serial dilutions of doxorubicin were immediately applied to the wells at a dose of 100 μg/ml to 0.00128 μg/ml. These were allowed an exposure time of 24 hours and then washed with PBS and 200 μl growth media replaced for a further 24 hours 25 μl of Alamar blue dye® (BioSource International, Camarillo, Calif.) was added for a further 8 hours and metabolic activity read with a Cytofluor® plate reader (Applied Biosystems, Foster City, Calif.). Metabolic activity was expressed as per manufacturer recommendations (BioSource International, Camarillo, Calif.). The experiment was repeated using cells grown at 72 hours under pressure, de-pressurized to atmospheric pressure and then trypsinized and seeded at 2000 cells per well and allowed 24 hours to gain attachment. They were then treated with doxorubicin. Assessment was completed as above. […] Student's t-test was used to assess for significance between the results of chemosensitivity at 0 and 20 mmHg. […] Each data point represents the mean of six readings with error bars representing the standard deviation.
# HOS cells [2] = assay: Chemosensitivity testing in a pressurized cassette-HPA system (in situ cell counts); settings: for differences in growth between the pressurized and non-pressurized systems: 0 vs 20 mmHg, 72 h under pressure with drug, at 0.16 and 1 μ/ml; for difference in viability (cell counts under pressure) between 0 and 20 mmHg: testing under pressure, clinically relevant range of 0.04 to 4 μ/ml
# Description: To investigate chemosensitivity in a pressurized system, 1.5×10^4 HOS cells were seeded in 16 cassettes. These were incubated for 24 hours and baseline counts were made at the end of 24 hours. Serial dilutions of doxorubicin were added at a dose of 0 μg/ml, 0.16 μg/ml, 1 μg/ml and 8 μg/ml. […] Two sets were provided for each drug at 0 and 20 mmHg. Pressurization proceeded for 72 hours as described above. At the end of this time point, in situ cell growth over the identical 5 high power fields recorded after the first 24 hours were made. The observer was blinded to the identity of the sample being read. Cell growth was expressed as a ratio between the 72 hour and baseline 24 hour counts. This was then normalized to the readings for cells that were not exposed to chemotherapy (i.e. 0 μg/ml). This was done to account for cell growth changes that could result from the pressure effect itself. Student's T-test was used to assess for significance between the results of chemosensitivity at 0 and 20 mmHg. […] Each data point represents the mean of five readings with error bars representing the standard error of the mean.
# HOS cells [3] = assay: Chemosensitivity testing of membrane discs bearing pressurized HOS cells immediately exposed to drug in 96-well plate (Alamar blue); settings: HOS cells grown under pressure 72 h, cut from membranes, 24 h drug exposure at atmospheric pressure, no 24 h de-pressurization
# Description: HOS cells were pressurized at 0 and 20 mmHg for 72 hours. At the end of this time point the growth membrane was removed and discs were created with a sterile punch. These discs bearing 2000 cells/disc were placed within each of the wells in a Costar 96-well plate (Bio-Rad, Hercules, Calif.). Serial dilutions of doxorubicin were immediately applied to the wells at a dose of 100 μg/ml to 0.00128 μg/ml. These were allowed an exposure time of 24 hours and then washed with PBS and 200 μl growth media replaced for a further 24 hours 25 μl of Alamar blue dye® (BioSource International, Camarillo, Calif.) was added for a further 8 hours and metabolic activity read with a Cytofluor® plate reader (Applied Biosystems, Foster City, Calif.). Metabolic activity was expressed as per manufacturer recommendations (BioSource International, Camarillo, Calif.).
compound,measurement,setting,value
N.N.[Cl][Pt][Cl] [cisplatin],difference in the ED50 between cells grown at atmospheric pressure and those grown under 20 mmHg of pressure,HOS cells [1],statistically significant difference
same,differences in growth between the pressurized and non-pressurized systems,HOS cells [2],marked differences in growth
same,difference in viability (cell counts under pressure) between 0 and 20 mmHg,HOS cells [2],dramatic difference in viability
COc1cccc2c1C(=O)c1c(O)c3c(c(O)c1C2=O)C[C@@](O)(C(=O)CO)C[C@@H]3O[C@H]1C[C@H](N)[C@H](O)[C@H](C)O1 [doxorubicin],"difference in sensitivity between cells grown at 0 and 20 mmHg, membranes immediately exposed to drug",HOS cells [3],this difference became more pronounced; also recorded: dramatic differences to sensitivity
same,difference in the ED50 between cells grown at atmospheric pressure and those grown under 20 mmHg of pressure,HOS cells [1],statistically significant difference
same,difference in cytotoxicity between cells grown at 0 and 20 mmHg,"HOS cells [1]; depressurized HOS cells, drug concentration range 0.04 to 4 μg/ml",statistically significant difference in cytotoxicity
same,differences in growth between the pressurized and non-pressurized systems,HOS cells [2],marked differences in growth
same,difference in viability (cell counts under pressure) between 0 and 20 mmHg,HOS cells [2],dramatic difference in viability
